Two molecules from patent US12428681B2, “Markers of totipotency and methods of use” (AGENCY FOR SCIENCE, TECHNOLOGY AND RESEARCH, priority 2017, dated 2025) can be followed below.

Holding throughout (type): cell-based, mouse
In experiment [1] the test system is NELFA-Strep-HA-P2A-EGFP mESCs. Description: Flow cytometry of NELFA^high subpopulation in NELFA reporter mESCs. As to the method:
(§1) Unless otherwise stated, all mESC lines were cultured in serum-containing ESC medium containing Knockout DMEM, 15% FCS, L-Glutamine, non-essential amino acids, penicillin/streptomycin, 2-mercaptoethanol and supplemented with LIF, 1 μM PD0325901 and 3 µM CHIR99021 (2i′). For serum-free ‘naïve’ culture condition, mESCs were grown in N2B27 medium supplemented with LIF and 2i. For 2-DG experiments, ESCs were grown in serum-containing ESC medium with 4 mM 2-DG (Sigma; D8375) for up to 4 days. For MYC inhibitor treatment, ESCs were grown in serum-containing ESC medium with […] MYC inhibitor, 10058-F4 (Abcam), for 3 days.
Mouse ES cells are grown in standard culture medium containing 4 mM of 2-DG inhibitor for 4 days, at 37° C. with 5% CO2. Culture medium containing 2-DG is changed every day during the induction. […] In a second system, where NELFA is under the control of a Dox inducible promoter, the expression is induced by culturing the ES cells with culture medium containing 0.4 μg/mL of Doxycycline for 16 hours at 37° C. with 5% CO2.
For NELFA-StrepHA-P2A-EGFP reporter ESC line, a donor vector harboring a Strep-HA-P2A-EGFP cassette flanked by NELFA left and right homology arms (826 bp and 924 bp respectively) was co-transfected with the CRISPR-Cas9 sgRNA cloning vector, pX458, containing the Nelfa sgRNA sequence ([…])(SEQ ID NO: 1). Positive transfectants were GFP-sorted and targeted single clones validated by genotyping.
FACSAria Cell Sorter (BD Biosciences) was used to quantify the proportion of EGFPpositive and EGFP-negative cells from the reporter mESC lines. The Moflow sorter was used to sort EGFP-positive and EGFP-negative cells for RNA-seq and NoME-seq studies.
(In general: A flow cytometer gives signals particle by particle.)

Experiment [2] concerns NELFA reporter mESCs. Nature of the experiment: RNA-seq transcriptomic profiling of unsorted 2-DG-treated NELFA reporter mESCs. The conditions noted are these: adjusted p-value≤0.01 and fold-change≥2. The procedure:
as §1, with “3 days. […]” for “3 days.”
Single- and Paired-end raw sequencing reads were trimmed with Trim Galore (v0.4.2_dev; www.bioinformatics.babraham.ac.uk/projects/trim_galore/) with parameters: --trim-n (single-end, NELFA reporter mESCs) or -paired (paired-end, Doxinducible NELFA-EGFP and 2DG-treated NELFA reporter mESCs). Cleaned reads were then mapped to the mouse GRCm38 reference genome, guided by the vM9 gene model from the GENCODE project using the RSEM pipeline (v1.1.11). […] Reads mapping and quantification of individual repetitive element expression were carried out by using the RepEnrich pipeline, which takes a two-step approach. Briefly, reads were mapped to the mouse genome (mm10) by Bowtie (v1.1.2), and separated into multiple-mapped and uniquely mapped reads. […]

Experiment [3] has as its system NELFA reporter mESCs. Nature of the experiment: Immunofluorescence for 2C-like markers and H1-mCherry in NELFA reporter mESCs. The procedure:
as §1
For generation of histone H1-mCherry stable mESCs, mouse H1e-mCherry fusion DNA sequence was ordered as a Gblock from IDT, amplified and inserted into the expression plasmid, pCAG-IRES-hygromycin. The pCAG-H1-mCherry-IRES-hygromycin plasmid was linearized with FspI and transfected into both NELFA-StrepHA-P2A-EGFP reporter mESCs and Dox-inducible pTRE-NELFA-StrepHA mESCs. Transfected cells were selected with hygromycin B (150 μg/ml) for 4 days before single colony sub-cloning.
Briefly mESCs were grown on gelatin-coated imaging dishes, fixed in 4% PFA for 10 min at room temperature, permeabilized and blocked in 0.1% TRITON™ X-100/1% BSA for 30 min. Cells were incubated in primary antibodies overnight at 4° C. followed by three washes in blocking buffer. […]

The next experiment relates to mESCs. Description: RT-qPCR of 2C-relevant genes in mESCs. As to conditions: 2-DG stimulation alone. As to the method:
Unless otherwise stated, all mESC lines were cultured in serum-containing ESC medium containing Knockout DMEM, 15% FCS, L-Glutamine, non-essential amino acids, penicillin/streptomycin, 2-mercaptoethanol and supplemented with LIF, 1 μM PD0325901 and 3 µM CHIR99021 (2i′). For serum-free ‘naïve’ culture condition, mESCs were grown in N2B27 medium supplemented with LIF and 2i. For 2-DG experiments, ESCs were grown in serum-containing ESC medium with 4 mM 2-DG (Sigma; D8375) for up to 4 days. For MYC inhibitor treatment, ESCs were grown in serum-containing ESC medium with […] MYC inhibitor, 10058-F4 (Abcam), for 3 days. siRNAs were purchased from GE Dharmacon and Qiagen and transfected into mESCs using Lipofectamine RNAiMAX according to manufacturer's instructions. Both forward and reverse transfections were carried out. The final concentration of siRNA used was 40 nM per transfection and the effect of knockdown analyzed at 72 h. 0.5-1 μg of total RNA was used as input for cDNA preparation with the SensiFAST cDNA synthesis kit (Bioline; 65054). Reverse transcription was carried out with standard cycling condition as per manufacturer's instructions. […] Relative gene expression fold change was calculated using the delta delta CT method and statistical significance was assessed using a student's T-test.

Take `O=CC[C@@H](O)[C@H](O)[C@H](O)CO` [2-DG, 2-deoxy-D-glucose]: in experiment [1] (NELFA reporter mESCs, conventional culture conditions, 4 mM 2-DG, 4 days), the “increase in the NELFA^high subpopulation following 2-DG treatment” value is “up to 8 fold”. Further, the “change in Nelfa^high ESC subpopulation (in words)” value in experiment [1] (addition of 2-DG to Nelfa reporter ESCs) is listed as “prominent increase”. In the experiment with NELFA reporter mESCs [2], the “number of genes upregulated after 2-DG treatment” value is 175 genes. Besides, the “expression of MERVL family of retrotransposons and Zscan4 by immunofluorescence” value with NELFA reporter mESCs [3] (2-DG-treated NELFA-positive mESCs) is recorded as “upregulation”. Also, in the experiment with NELFA reporter mESCs [3] (NELFA-EGFP reporter mESCs stably expressing H1-mCherry, following 2-DG treatment), the “H1 localization on heterochromatin in NELFA^high mESCs” value was “clear displacement”. The “induction of Gata3 by RT-qPCR” value in the experiment with mESCs was “not observed”.
On to `CCc1ccc(/C=C2/SC(=S)NC2=O)cc1` [10058-F4], for which the “change in NELFA^high population (in words)” value in experiment [1] (NELFA reporter mESCs, 64 µM MYC inhibitor 10058-F4, 3 days) is listed as “no increase”.
